IC50, MIC and inhibition data for nine molecules are collected here from paper PMC6270420, “Antibacterial Activity of Salicylanilide 4-(Trifluoromethyl)benzoates” (Molecules, 2013).

For one assay, the system named is HepG2 cells. Nature of the assay: Cytotoxicity evaluation (CellTiter 96 MTS). The format is cell-based, human. Particulars: read-out: IC50 HepG2. How it is done: Seven esters and their parent salicylanilides with the most robust antimicrobial activity were tested for cytotoxicity in the human hepatocellular liver carcinoma cell line HepG2 (passages 21–24; ECACC, Salisbury, UK) using a standard colorimetric method measuring a tetrazolium salt reduction (CellTiter(R) 96 AQueous One Solution Assay, Promega G3580, Madison, WI, USA).
The cells were routinely cultured in Minimum Essentials Eagle Medium (Sigma-Aldrich, Darmstadt, Germany) supplemented with 10% foetal bovine serum (PAA; Biotech, Prague, Czech Republic), 1% of L-glutamine solution (Sigma-Aldrich), and non-essential amino acids solution (Sigma-Aldrich) in a humidified atmosphere containing 5% CO2 at 37 °C. For subculturing, the cells were harvested after trypsin/EDTA (Sigma-Aldrich) treatment at 37 °C. The cells treated with the tested substances were used as experimental groups. Untreated HepG2 cells were used as control groups.
The cells were seeded in density 1 × 10^4 cells per well in a 96-well plate with microscopic control. Next day, the cells were treated with each of the tested substances. […] The most of the tested compounds were prepared in incubation concentrations of 0.01–20 µM in triplicates. 4-(Trifluoromethyl)benzoic acid was applied in the concentrations of 10–4,000 µM in triplicates. The following types of controls were included: determination of 100% viability and 0% viability (the cells treated by 10% DMSO), no cell control and vehiculum controls. These checking samples were prepared in triplicates.
The treated cells were incubated together with controls at 37 °C for 24 h in 5% CO2 atmosphere. After this time reagent from the kit CellTiter 96 AQueous One Solution Cell Proliferation Assay was added. The CellTiter 96 assay is based on the reduction of tetrazolium salt MTS [3-(4,5-dimethylthiazol-2-yl)-5-(3-carboxymethoxyphenyl)-2-(4-sulfophenyl)-2H-tetrazolium] to water-soluble formazan dye by metabolically active cells. The reduction of the reagent is attributed to availability of NADH or NADPH. The decline in levels of these metabolically important compounds in the cell causes that the production of formazan is reduced. The tested plate was incubated for 2 h at 37 °C and 5% CO2 and after this time, the absorbance was recorded at 490 nm using a 96-well plate reader (TECAN, Infinite M200, Grödig, Austria).
The results were expressed as inhibitory concentration which is necessary to inhibit cell viability to 50% from the maximal (control) viability (IC50). A standard toxicological parameter IC50 was calculated in each of the tested substances using GraphPad Prism software (version 5.02; GraphPad Software Inc., San Diego, CA, USA).

The test system of assay [1] is Enterococcus sp. J 14365/08. Briefly: Antibacterial microdilution broth method. The format is cell-based. Particulars: read-out: MIC/IC90 Enterococcus sp. J 14365/08. How it is done: (§1) The in vitro antibacterial activity was assayed against eight Gram-positive and Gram-negative strains: Staphylococcus aureus CCM 4516/08, methicillin-resistant Staphylococcus aureus H 5996/08 (MRSA), Staphylococcus epidermidis H 6966/08, Enterococcus sp. J 14365/08; Escherichia coli CCM 4517, Klebsiella pneumoniae D 11750/08, ESBL-positive Klebsiella pneumoniae J 14368/08, and Pseudomonas aeruginosa CCM 1961.
(§2) The microdilution broth method modified according to standard M07-A07 in Mueller-Hinton broth (HiMedia Laboratories, Mumbai, India) adjusted to pH 7.4 (±0.2) was used. The tested compounds were dissolved in DMSO to the final concentrations ranging from […]. Benzylpenicillin (penicillin G) was used as a comparative drug. Bacterial inoculum in sterile water was prepared to match 0.5 McFarland scale ([…]). The minimum inhibitory concentrations were assayed as 90% (IC90) or higher reduction of growth when compared to the control. The determination of results was performed visually and spectrophotometrically (at 540 nm). The values of MICs were determined after 24 and 48 h of incubation in the darkness at 35 °C (±0.1) in a humid atmosphere.

The subject of assay [2] is Escherichia coli CCM 4517. Briefly: Antibacterial microdilution broth method. The format is cell-based. The settings on record: read-out: MIC/IC90 E. coli CCM 4517. As to the method:
as §1, §2
Background: Broth dilution looks for growth in wells or tubes with falling amounts of substance.

Assay [3] concerns Staphylococcus aureus CCM 4516/08. Nature of the assay: Antibacterial microdilution broth method. Particulars: read-out: MIC/IC90 S. aureus CCM 4516/08. The format is cell-based. How it is done:
as §1, §2

For assay [4], the system named is Staphylococcus epidermidis H 6966/08. Briefly: Antibacterial microdilution broth method. Type of assay: cell-based. The settings on record: read-out: MIC/IC90 S. epidermidis H 6966/08. As to the method: as §1, §2
Assay [5] has as its system methicillin-resistant Staphylococcus aureus H 5996/08 (MRSA). Nature of the assay: Antibacterial microdilution broth method. Particulars: read-out: MIC/IC90 MRSA H 5996/08. Type of assay: cell-based. How it is done:
as §1, §2

The subject of assay [6] is Mycobacterium tuberculosis 331/88 (H37Rv). Nature of the assay: Antimycobacterial MIC micromethod, Šula's medium. Particulars: read-out: MIC Mtb. 331/88. Type of assay: cell-based.
In assay [7] the test system is Mycobacterium avium 330/88. Nature of the assay: Antimycobacterial MIC micromethod. The format is cell-based.
In assay [8] the test system is Mycobacterium kansasii 235/80. Briefly: Antimycobacterial MIC micromethod. The format is cell-based. Particulars: read-out: MIC M. kansasii 235/80.
Assay [9] deals with M. kansasii 6509/96 (clinically isolated strain). Nature of the assay: Antimycobacterial MIC micromethod. Particulars: Mycobacterium kansasii, read-out: MIC M. kansasii 6509/96. The format is cell-based.
For assay [10], the target named is T1, mycobacterial isocitrate lyase (ICL1, Rv0467) (Mycobacterium tuberculosis, UniProt P9WKK7).
T1 construct: His tag (from pET-28b(+)); made in house; host or cells: E. coli BL21(DE3), pET-28b(+) plasmid
T1 sequence (P9WKK7 1-428): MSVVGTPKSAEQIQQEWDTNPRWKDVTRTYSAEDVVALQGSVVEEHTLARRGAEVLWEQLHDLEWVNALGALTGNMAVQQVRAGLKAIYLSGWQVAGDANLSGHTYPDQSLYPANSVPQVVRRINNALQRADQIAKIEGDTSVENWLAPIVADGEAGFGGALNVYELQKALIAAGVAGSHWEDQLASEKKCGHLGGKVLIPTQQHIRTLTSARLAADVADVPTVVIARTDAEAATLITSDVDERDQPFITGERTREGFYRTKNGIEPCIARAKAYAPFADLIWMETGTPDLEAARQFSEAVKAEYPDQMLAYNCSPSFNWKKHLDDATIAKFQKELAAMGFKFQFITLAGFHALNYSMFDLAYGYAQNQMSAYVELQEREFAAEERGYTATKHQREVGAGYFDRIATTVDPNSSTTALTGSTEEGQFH
Briefly: Isocitrate lyase inhibition assay (ICL1). The format is biochemical, Mycobacterium tuberculosis H37Rv. The settings on record: 10 μmol/L; read-out: % ICL inhibition at 10 μmol/L (± standard deviation).

Converted amounts (≈) assume the structure as drawn. Read-outs that look alike come from different tables or passages of the source. Some results are limits rather than exact numbers.

`O=C(Nc1ccc(Br)cc1)c1ccc(Cl)cc1O` [SAL-4]: the IC50 in the assay on HepG2 cells (24 h, cytotoxicity) came out at 1.98 µM.

In the case of `CC1(C)S[C@@H]2[C@H](NC(=O)Cc3ccccc3)C(=O)N2[C@H]1C(=O)O` [PNC, benzylpenicillin, reference compound], the MIC was 7.81 µM (≈ 2.61 µg/mL) in assay [1] (SP.J14365/08, 24 h); 15.6 µM (≈ 5.22 µg/mL) in assay [1] (SP.J14365/08, 48 h); over 500 µM in assay [2] (CCM4517, 24 h); over 500 µM in assay [2] (CCM4517, 48 h); 0.98 µM (≈ 0.328 µg/mL) in [3] (CCM4516, 24 h); 0.98 µM (≈ 0.328 µg/mL) in [3] (CCM4516, 48 h). In addition, the MIC was 250 µM (≈ 83.6 µg/mL) in assay [4] (H6966/08, 24 h); 250 µM (≈ 83.6 µg/mL) in assay [4] (H6966/08, 48 h); 62.5 µM (≈ 20.9 µg/mL) in [5] (24 h); 125 µM (≈ 41.8 µg/mL) in assay [5] (48 h).

Take `O=C(Nc1cccc(Br)c1)c1cc(Cl)ccc1O` [SAL-3]: in the assay on HepG2 cells (24 h, cytotoxicity), the IC50 was 1.54 µM.

As to `O=C(Oc1ccc(Cl)cc1C(=O)Nc1ccc(F)cc1)c1ccc(C(F)(F)F)cc1` [1m], the MIC in [6] (336 h, 14 d) was 8 µM (≈ 3.5 µg/mL); in [6] (504 h, 21 d), 8 µM (≈ 3.5 µg/mL); in [7] (330/88, 336 h, 14 d), 16 µM (≈ 7 µg/mL); in assay [7] (330/88, 504 h, 21 d) it was 32 µM (≈ 14 µg/mL); in assay [8] (235/80, 168 h, 7 d), 4 µM (≈ 1.75 µg/mL); in assay [8] (235/80, 336 h, 14 d), 16 µM (≈ 7 µg/mL). Also, the MIC is 16 µM (≈ 7 µg/mL) in assay [8] (235/80, 504 h, 21 d); 8 µM (≈ 3.5 µg/mL) in [9] (168 h, 7 d); 16 µM (≈ 7 µg/mL) in [9] (336 h, 14 d); 16 µM (≈ 7 µg/mL) in assay [9] (504 h, 21 d); 500 µM (≈ 219 µg/mL) in assay [1] (SP.J14365/08, 24 h); over 500 µM in assay [1] (SP.J14365/08, 48 h). Further, the MIC in assay [2] (CCM4517, 24 h) was over 500 µM; in [2] (CCM4517, 48 h), over 500 µM; in assay [3] (CCM4516, 24 h) it was 7.81 µM (≈ 3.42 µg/mL); in assay [3] (CCM4516, 48 h), 7.81 µM (≈ 3.42 µg/mL); in assay [4] (H6966/08, 24 h), 31.2 µM (≈ 13.7 µg/mL); in assay [4] (H6966/08, 48 h) it was over 500 µM. Further, the MIC in assay [5] (24 h) and in assay [5] (48 h) was 15.6 µM (≈ 6.84 µg/mL) in each case. The inhibition at 10 µM in assay [10] is at least 20%.

Consider `O=C(Nc1ccc(Cl)c(Cl)c1)c1ccc(Cl)cc1O` [SAL-2], for which the IC50 in the assay on HepG2 cells (24 h, cytotoxicity) is 1.8 µM.

As for `O=C(Nc1ccc(Cl)c(Cl)c1)c1cc(Cl)ccc1O` [SAL-1], the IC50 in the assay on HepG2 cells (24 h, cytotoxicity) is 0.84 µM.

As to `O=C(Nc1ccc(C(F)(F)F)cc1)c1cc(Br)ccc1O` [SAL-7, 5-Bromo-2-hydroxy-N-[4-(trifluoromethyl)phenyl]benzamide], in the assay with HepG2 cells (Homo sapiens, HepG2, 24 h), the IC50 worked out at 1.67 µM.

Take `O=C(Nc1ccc(C(F)(F)F)cc1)c1ccc(Cl)cc1O` [SAL-6]: in the assay on HepG2 cells (24 h, cytotoxicity), the IC50 came out at 0.69 µM.

For the molecule `O=C(Nc1ccc(C(F)(F)F)cc1)c1cc(Cl)ccc1O` [SAL-5, 5-chloro-2-hydroxy-N-[4-(trifluoromethyl)phenyl]benzamide], in the assay with HepG2 cells (Homo sapiens, HepG2, 24 h, cytotoxicity), the half-maximal inhibitory concentration (IC50) stood at 0.36 µM.

As usually defined, the IC50 is the concentration that inhibits the measured activity by half.
